# Results from ChEMBL document CHEMBL1141101, “Design, synthesis, and biological activity of m-tyrosine-based 16- and 17-membered macrocyclic inhibitors of hepatitis C virus NS3 serine protease” (J Med Chem, 2005).
# Numbered stars: 1 amine (or outer) side, 2 acyl side, 3 side chain; on linkers, the order of the positions; unused ones are H or OH. Square brackets hold non-standard residues; d marks the D form. Peptide text beside a SMILES is read from it. * marks the point of attachment. Phe(3-CF3) = N[C@@H](Cc1cccc(C(F)(F)F)c1)C(=O)O; X1 = CCCC(N[*:1])C(=O)C(=O)[*:2]; Chg = N[C@H](C(=O)O)C1CCCCC1; Phg = N[C@H](C(=O)O)c1ccccc1; Boc = CC(C)(C)OC(=O)*
# Molecular target: NS3 (Hepatitis C virus, UniProt A3EZJ3)
# Sequence (A3EZJ3 whole entry): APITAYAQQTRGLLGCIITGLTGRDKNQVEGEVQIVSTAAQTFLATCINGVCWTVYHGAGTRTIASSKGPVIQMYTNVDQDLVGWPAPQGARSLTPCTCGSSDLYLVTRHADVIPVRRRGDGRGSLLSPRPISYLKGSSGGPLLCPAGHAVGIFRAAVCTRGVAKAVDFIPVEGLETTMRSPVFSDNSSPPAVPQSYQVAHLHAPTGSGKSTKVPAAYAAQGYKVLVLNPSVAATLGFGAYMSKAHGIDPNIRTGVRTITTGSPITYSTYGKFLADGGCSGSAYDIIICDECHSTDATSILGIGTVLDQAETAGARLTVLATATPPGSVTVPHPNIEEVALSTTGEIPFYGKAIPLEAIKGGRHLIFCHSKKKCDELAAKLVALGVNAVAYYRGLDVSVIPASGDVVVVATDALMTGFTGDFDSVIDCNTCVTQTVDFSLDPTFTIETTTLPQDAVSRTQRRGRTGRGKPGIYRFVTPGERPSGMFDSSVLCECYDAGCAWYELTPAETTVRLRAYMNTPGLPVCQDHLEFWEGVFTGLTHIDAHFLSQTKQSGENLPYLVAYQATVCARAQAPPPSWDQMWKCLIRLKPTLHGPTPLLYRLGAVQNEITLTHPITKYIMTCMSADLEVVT
# Test: Binding affinity for HCV NS3 protease measured by HCV continuous assay
# Design: species or system Hepacivirus hominis
row,Ki [nM],Compound
1,5500,CCCC(NC(=O)[C@@H]1Cc2cccc(c2)OCCCCCCC(=O)N[C@@H](C2CCCCC2)C(=O)N1)C(=O)C(=O)NCC(=O)N[C@H](C(=O)OC(C)(C)C)c1ccccc1 (some centres not stated)
2,1200,CCCC(NC(=O)[C@@H]1Cc2cccc(c2)OCCCCCC(=O)N[C@@H](C2CCCCC2)C(=O)N1)C(=O)C(=O)NCC(=O)N[C@H](C(=O)O)c1ccccc1 (some centres not stated)
3,160,CCCC(NC(=O)[C@@H]1Cc2cccc(c2)OCCCCCCC(=O)N[C@@H](C2CCCCC2)C(=O)N1)C(=O)C(=O)NCC(=O)N[C@H](C(=O)O)c1ccccc1 (some centres not stated)
4,310,CCCC(NC(=O)[C@@H]1Cc2cccc(c2)OCCCCCCC(=O)N[C@@H](C2CCCCC2)C(=O)N1)C(=O)C(=O)NCC(=O)N[C@H](C(=O)N(C)C)c1ccccc1 (some centres not stated)
5,> 8900,CCCC(NC(=O)[C@@H]1Cc2cccc(c2)OCCCCCC(=O)N[C@@H](C2CCCCC2)C(=O)N1)C(=O)C(=O)NCC(=O)N[C@H](C(=O)OC(C)(C)C)c1ccccc1 (some centres not stated)
6,170,CCCC(NC(=O)[C@@H]1Cc2cccc(c2)OCCCCCCC(=O)N[C@@H](C2CCCCC2)C(=O)N1)C(=O)C(=O)NCC(=O)N[C@H](C(=O)NC)c1ccccc1 (some centres not stated)
7,8000,CCCC(NC(=O)[C@H](Cc1cccc(C(F)(F)F)c1)NC(=O)[C@@H](NC(=O)OC(C)(C)C)C1CCCCC1)C(=O)C(=O)NCC(=O)N[C@H](C(N)=O)c1ccccc1 (some centres not stated) (Boc-[Chg][Phe(3-CF3)][X1]G[Phg]-NH2)
